Data on three compounds can be found in patent US20090011057A1, “FORMULATIONS AND METHODS FOR INHIBITING ANAEROBES, GRAM NEGATIVE BACTERIA, PROTOZOA AND OTHER MICROBIAL GROWTH WITH MORINDA CITRIFOLIA L. ENHANCED FORMULATIONS” (priority 2007, published 2009).

Assay type in all cases: cell-based
Test [1] deals with Actinomyces viscosus (ATCC 15987). The experiment in a line: Anti-infective in vitro assay, growth inhibition (turbidity). The note with it: ATCC15987, read-out: Reference Compound, Concurrent (MIC). The procedure: (§1) In a preliminary investigations the potential usage of the M. citrifolia Noni fruit juice on bacterial species and various protozoan species, which are known to cause economic downfalls in humans and livestock industries were assessed.
(§2) Method employed in this study have been adapted from the scientific literature to maximize reliability and reproducibility. Reference standards were run as an integral part of each assay to ensure the validity of the results obtained. Materials utilized are described in the following charts.

For test [2], the system named is Trichomonas foetus (Br. M. Strain). The experiment in a line: Anti-infective in vitro assay, inhibition of growth examined. Conditions: Tritrichomonas foetus, read-out: Reference Compound, Concurrent (MIC). The procedure:
as §1, §2

In test [3] the test system is Salmonella typhimurium (ATCC 13311). The experiment in a line: Anti-infective in vitro assay, growth inhibition (turbidity). Conditions: Salmonella typhimuium (ATCC 13311). How it is done:
as §1, §2

What is called MIC is the lowest concentration found to suppress growth.

Values after ≈ are worked out from the molar mass of the structure shown.

As to `CC1(C)S[C@@H]2[C@H](NC(=O)[C@H](N)c3ccccc3)C(=O)N2[C@H]1C(=O)O` [Ampicillin], the MIC in test [1] worked out at 0.03 µg/mL (≈ 0.0859 µM).

As for `Cc1ncc([N+](=O)[O-])n1CCO` [Metronidazole], in test [2], the minimum inhibitory concentration (MIC) was 3 µg/mL (≈ 17.5 µM).

Gentamicin: the MIC in test [3] came to 0.3 µg/mL.
